Here are results for seven compounds from publication PMC6895203, “Conformational pathway provides unique sensitivity to a synaptic mGluR” (Nature Communications, 2019).

In one assay the target is T1, SNAP-mGluR2(F756D) (Rattus norvegicus, UniProt P31421, F756D).
T1 construct: HA (N); expressed in transfected cells; host or cells: HEK293 / HEK293T
In words: Whole-cell patch clamp of GIRK1 current, SNAP-mGluR2(F756D) expressed alone. Type of assay: cell-based. The note with it: BGAG12 labeled, 380 nm. The text has this:
We explored this further by examining trans-activation, whereby binding of ligand to one subunit activates G-protein interaction in the partner subunit[46],[47]. To specifically activate only the mGluR2 subunit of the mGluR2/7 heterodimer, we selectively attached a photoswitched tethered ligand to mGluR2.
(§1) Illumination was applied to the entire field of view using either a Polychrome V monochromator (TILL Photonics) through a 20× objective, or a Lambda DG4 high-speed wavelength switcher (Sutter Instruments) with 380 nm and 500 nm filters through a 40× objective. pClamp software was used for both data acquisition and control of illumination.

For assay [1], the target named is CLIP-mGluR2/SNAP-mGluR7 heterodimer (mGluR2/7) (Rattus norvegicus, UniProt P31421+P35400). In words: smFRET on isolated CLIP-mGluR2/SNAP-mGluR7 heterodimers. Particulars: for effect on smFRET distribution: 0 glutamate, combination of mGluR2 NAM (11 µM Ro 64-5229 or 1.2 µM MNI-137) with mGluR7 NAM ([…] ADX 71743).
Chain of CLIP-mGluR2/SNAP-mGluR7 heterodimer (mGluR2/7) (P31421 19-872): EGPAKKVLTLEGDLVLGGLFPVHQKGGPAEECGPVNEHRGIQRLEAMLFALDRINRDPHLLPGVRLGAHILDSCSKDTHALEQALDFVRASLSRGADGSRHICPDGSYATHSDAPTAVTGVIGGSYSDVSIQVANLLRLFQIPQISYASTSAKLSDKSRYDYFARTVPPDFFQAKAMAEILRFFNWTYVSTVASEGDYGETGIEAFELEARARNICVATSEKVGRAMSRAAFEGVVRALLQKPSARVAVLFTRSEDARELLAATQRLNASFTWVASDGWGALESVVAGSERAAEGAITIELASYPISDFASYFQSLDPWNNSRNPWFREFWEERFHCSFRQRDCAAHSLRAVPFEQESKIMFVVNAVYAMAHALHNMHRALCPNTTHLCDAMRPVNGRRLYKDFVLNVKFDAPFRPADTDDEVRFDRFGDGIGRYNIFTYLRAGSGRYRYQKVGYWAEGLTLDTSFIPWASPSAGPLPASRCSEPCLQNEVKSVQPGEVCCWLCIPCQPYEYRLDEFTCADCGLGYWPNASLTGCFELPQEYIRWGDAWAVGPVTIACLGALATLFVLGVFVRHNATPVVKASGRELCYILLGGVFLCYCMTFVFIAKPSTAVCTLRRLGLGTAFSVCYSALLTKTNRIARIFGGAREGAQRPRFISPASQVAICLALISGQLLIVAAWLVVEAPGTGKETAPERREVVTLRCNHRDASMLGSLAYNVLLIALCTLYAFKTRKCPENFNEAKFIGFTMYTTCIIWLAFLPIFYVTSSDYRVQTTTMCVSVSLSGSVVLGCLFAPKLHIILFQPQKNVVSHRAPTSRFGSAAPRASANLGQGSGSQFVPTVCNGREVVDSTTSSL
Chain of CLIP-mGluR2/SNAP-mGluR7 heterodimer (mGluR2/7) (P35400 35-915): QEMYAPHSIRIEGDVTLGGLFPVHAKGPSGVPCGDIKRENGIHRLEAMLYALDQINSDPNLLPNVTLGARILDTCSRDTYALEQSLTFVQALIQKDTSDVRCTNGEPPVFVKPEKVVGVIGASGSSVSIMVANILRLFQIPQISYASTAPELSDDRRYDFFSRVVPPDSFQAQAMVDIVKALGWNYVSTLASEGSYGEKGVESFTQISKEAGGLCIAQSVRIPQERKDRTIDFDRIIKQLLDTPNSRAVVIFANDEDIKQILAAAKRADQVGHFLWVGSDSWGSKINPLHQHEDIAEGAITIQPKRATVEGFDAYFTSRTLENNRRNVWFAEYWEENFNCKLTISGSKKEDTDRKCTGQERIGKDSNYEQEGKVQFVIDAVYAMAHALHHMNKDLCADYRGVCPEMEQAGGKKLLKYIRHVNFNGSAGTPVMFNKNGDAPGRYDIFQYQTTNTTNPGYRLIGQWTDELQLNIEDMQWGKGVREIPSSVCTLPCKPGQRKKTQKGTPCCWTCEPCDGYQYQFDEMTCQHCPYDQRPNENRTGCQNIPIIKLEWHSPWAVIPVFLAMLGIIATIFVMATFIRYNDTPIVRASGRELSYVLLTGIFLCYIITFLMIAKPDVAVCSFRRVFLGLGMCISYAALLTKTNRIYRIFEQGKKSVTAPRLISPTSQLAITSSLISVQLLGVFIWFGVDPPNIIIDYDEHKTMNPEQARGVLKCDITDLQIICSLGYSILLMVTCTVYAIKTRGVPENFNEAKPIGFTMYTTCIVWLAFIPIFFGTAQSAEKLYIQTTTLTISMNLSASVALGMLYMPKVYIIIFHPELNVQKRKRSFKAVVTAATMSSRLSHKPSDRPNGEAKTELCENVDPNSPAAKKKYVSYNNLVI
Assay [2] deals with T2, SNAP-mGluR7(K319C) homodimer (Rattus norvegicus, UniProt P35400, K319C).
T2 construct: HA (N); made in house; host or cells: HEK293T
T2 sequence (P35400 35-915 K319C): as the sequence (P35400 35-915) above, with K285C counted along it
In words: smFRET on SNAP-mGluR7(K319C) homodimers conjugated to D-MAG-0. The format is biochemical. The procedure: smFRET was performed on purified SNAP-mGluR7(K319C) homodimers that were labeled with donor and acceptor dyes on the SNAP and D-MAG-0 on K319C in the D-MAG-0 activated state. […] Illumination was applied to the entire field of view using either a Polychrome V monochromator (TILL Photonics) through a 20× objective, or a Lambda DG4 high-speed wavelength switcher (Sutter Instruments) with 380 nm and 500 nm filters through a 40× objective. pClamp software was used for both data acquisition and control of illumination.
(§2) (100 ms time resolution).

Assay [3] deals with T3, CLIP-mGluR2/SNAP-mGluR7(K319C) heterodimer (Rattus norvegicus, UniProt P31421+P35400, K319C).
T3 construct: Flag (N); HA (N); made in house; host or cells: HEK293T
T3 sequence (P31421 19-872): as the sequence (P31421 19-872) above
T3 sequence (P35400 35-915 K319C): as the sequence (P35400 35-915) above, with K285C counted along it
In words: smFRET on CLIP-mGluR2/SNAP-mGluR7(K319C) heterodimers with D-MAG-0 on mGluR7. Type of assay: biochemical. Particulars: trans D-MAG-0 only on the mGluR7 subunit.
Excerpt: as §1, §2

The target in assay [4] is SNAP-mGluR7/SNAP-mGluR7 homodimer (mGluR7/7) (Rattus norvegicus, UniProt P35400). In words: smFRET on isolated immune-purified SNAP-mGluR7/7 dimers.
Chain of SNAP-mGluR7/SNAP-mGluR7 homodimer (mGluR7/7) (P35400 35-915): as the sequence (P35400 35-915) above
Excerpt: (§3) Receptors expressed in HEK293T cells were labeled with a mixture of SNAP-reactive donor and acceptor fluorophores, detergent solubilized, immune-purified and tethered by biotinylated secondary antibodies at low density to coverslips that were passivated with a lawn of polyethylene glycol[13]. We used single-molecule FRET (smFRET) in order to measure the absolute FRET levels and dynamic changes associated with ligand-induced conformational changes in the LBDs. We imaged the donor and acceptor dyes using total internal reflection fluorescence (TIRF) microscopy[13],[31]
Assay [5] deals with T4, SNAP-mGluR2(F756D)/mGluR7 heterodimer (Rattus norvegicus, UniProt P31421+P35400, F756D).
T4 construct: HA (N); expressed in transfected cells; host or cells: HEK293 / HEK293T
T4 sequence (P31421 19-872 F756D): as the sequence (P31421 19-872) above, with F738D counted along it
T4 sequence (P35400 35-915): as the sequence (P35400 35-915) above
In words: Whole-cell patch clamp of GIRK1 current, trans-activation in SNAP-mGluR2(F756D)/mGluR7. The format is cell-based.
Excerpt: We explored this further by examining trans-activation, whereby binding of ligand to one subunit activates G-protein interaction in the partner subunit[46],[47]. To specifically activate only the mGluR2 subunit of the mGluR2/7 heterodimer, we selectively attached a photoswitched tethered ligand to mGluR2. […] SNAP-mGluR2(F756D) was co-expressed with wild-type mGluR7 along with the GIRK1 channel.
as §1
On the technique in general: The patch-clamp technique gives a direct electrical read-out from membranes.

Assay [6] concerns the target SNAP-mGluR2/SNAP-mGluR2 homodimer (mGluR2/2) (Rattus norvegicus, UniProt P31421). Description: smFRET on isolated immune-purified SNAP-mGluR2/2 dimers. Particulars: 10 nM DCG-IV.
Excerpt: as §3

“And” between values parts separate entries of the source, which are not always exact repeats. Equal values may be shown once. “Also recorded” adds a separate entry of the source.

T1 sequence (P31421 19-872 F756D): as the sequence (P31421 19-872) above, with F738D counted along it
Chain of SNAP-mGluR2/SNAP-mGluR2 homodimer (mGluR2/2) (P31421 19-872): as the sequence (P31421 19-872) above

Regarding `Nc1nc(OCc2ccc(CNC(=O)CCc3cn(CCOCCOCCOCCOCCOCCOCCOCCOCCOCCOCCOCCOCCC(=O)NCC(=O)Nc4ccc(/N=N/c5ccc(NC(=O)CCC[C@@H](C[C@H](N)C(=O)O)C(=O)O)cc5)cc4)nn3)cc2)c2nc[nH]c2n1` [BGAG12, benzylguanine azobenzene glutamate], the photocurrent entry on SNAP-mGluR2(F756D) is recorded as “no photocurrent”.
Take `CCc1nc2c(o1)CC(c1ccc(C)cc1C)CC2=O` (centres unmarked) [ADX71743]: the “effect on smFRET distribution” value in assay [1] is “narrowed the smFRET distribution and shifted it to the right”.
In the case of `NC(CC(CCC(=O)Nc1ccc(N=Nc2ccc(NC(=O)CN3C(=O)C=CC3=O)cc2)cc1)C(=O)O)C(=O)O` (mixture of isomers) [D-MAG-0, maleimide-azobenzene-glutamate], the “stabilization of activated conformation, fold more effective than saturating free glutamate” value in assay [2] (trans D-MAG-0) is recorded as “approximately 5 fold”. Also, in assay [2] (trans D-MAG-0 on both subunits), the “occupancy of the activated low FRET state” value is given as ~ 50%. Besides, in assay [3], the “time in the activated low-FRET state” value is ~ 90%.
Consider `N[C@@H](CCP(=O)(O)C(O)c1ccc(OCC(=O)O)cc1)C(=O)O` (some centres unmarked) [LSP4-2022], for which, in assay [4] (20 μM LSP4-2022), the smFRET traces result was “frequent transitions to the low FRET activated conformation”. The “normalized low FRET area (Supplemental Figure 2a), mGluR7 LSP4” value was determined as 1 in assay [4] (agonist 0.003 (M)); 0.8692 in assay [4] (agonist 1.00E-03 (M)); 0.03798 in assay [4] (agonist 1.00E-06 (M)); 0.02088 in assay [4] (agonist 1.00E-07 (M)); 0.3163 in assay [4] (agonist 2.00E-05 (M)). Besides, the receptor occupancy at 1000 µM in assay [4] (read-out: occupancy of the activated conformation) is > 50%. Besides, the receptor occupancy at 3000 µM in assay [4] (read-out: occupancy of the low FRET conformation) is ~65%. In assay [4] (smFRET), the “efficacy, fold greater than that of glutamate” value is on record as “at least 6 fold”. In addition, the “shift of smFRET distribution” value in assay [1] (1 µM LSP4-2022) is on record as “slightly more than half-way toward the activated low FRET state”. For the same compound, the activation result in assay [1] (1 mM LSP4-2022) is “almost complete”. In assay [1] (smFRET), the “apparent affinity of mGluR7 subunit, fold higher than when partnered with another mGluR7” value is “approximately 1000 fold”.
In the case of MNI-137, the “effect on smFRET distribution” value in assay [1] is “narrowed the smFRET distribution and shifted it to the right”.
Turning to `N[C@H](C(=O)O)C1[C@@H](C(=O)O)[C@@H]1C(=O)O` (some centres unmarked) [DCG-IV], the “Norm. (1 nM DCG-IV), Over 20% Photo” value in assay [5] (1 nM DCG-IV, summary of cells Over 20% Photo) was found to be 0.04748. Moreover, the “Norm. (1 nM DCG-IV), Under 15% Photo” value in assay [5] (1 nM DCG-IV, summary of cells Under 15% Photo) amounted to 0.01667. In assay [5] (10 nM DCG-IV, summary of cells Over 20% Photo), the “Norm. (10 nM DCG-IV), Over 20% Photo” value was determined as 0.2749. For the same compound, the “Norm. (10 nM DCG-IV), Under 15% Photo” value in assay [5] (10 nM DCG-IV, summary of cells Under 15% Photo) was determined as 0.22. Besides, the “Norm. (100 nM DCG-IV), Over 20% Photo” value in assay [5] (100 nM DCG-IV, summary of cells Over 20% Photo) came to 0.5816. Further, the “Norm. (100 nM DCG-IV), Under 15% Photo” value in assay [5] (100 nM DCG-IV, summary of cells Under 15% Photo) is 0.3011. Moreover, the “Norm. (1 uM DCG-IV)” value in assay [5] (1 uM DCG-IV normalised to 1 mM Glu, single cells) is 0.9403 and 0.9452 and 0.7554 and 0.9507. In assay [5] (1 uM DCG-IV, summary of cells Over 20% Photo), the “Norm. (1 uM DCG-IV), Over 20% Photo” value turned out to be 0.9454. Further, in assay [5] (1 uM DCG-IV, summary of cells Under 15% Photo), the “Norm. (1 uM DCG-IV), Under 15% Photo” value worked out at 0.7554. The “Norm. (10 uM DCG-IV)” value in assay [5] (10 uM DCG-IV normalised to 1 mM Glu, single cells) turned out to be 1. In addition, in assay [5] (10 uM DCG-IV, single cells), the “Current, 10 uM DCG-IV” value is -498.53. In addition, the “Norm. (10 uM DCG-IV), Over 20% Photo” value in assay [5] (10 uM DCG-IV, summary of cells Over 20% Photo) is 1. For the same compound, the “DCG-IV GIRK concentration-response relation compared to mGluR2/2” value in assay [5] (patch clamp, foot of the relation) was “left-shifted; also recorded: more sensitive”. In addition, the “occupancy of the activated conformation” value in assay [6] is ~ 5%. Moreover, in assay [1] (10 nM DCG-IV), the “activated conformation occupancy, fold greater than mGluR2/2” value is given as ~ 5 fold and the “occupancy of the activated conformation” value is given as ~ 25%.
For the compound `Clc1cccc(Cl)c1/C(=C/n1cncn1)OC1CCCCCC1` [Ro 64-5229], in assay [1], the “effect on smFRET distribution” value is “narrowed the smFRET distribution and shifted it to the right”.
